Assay results from US9468648B2, “Treatment including prebiotic composition for use with probiotics” (MASTER SUPPLEMENTS, INC., priority 2010, dated 2016).

How the values were obtained:
Format in all cases: cell-based
[1] = system: Lactobacillus paracasei Lpc-37 (F-19); assay: Growth (turbidity) and lactic acid producing activity in MRS broth, L. paracasei Lpc-37
Method: (§1) Each flask was tempered to 37° C. and aseptically inoculated with 0.14 gm of the individual probiotic strains (in Examples 5 to 10 below) to be tested. At specified time intervals, a 30 ml sample from each flask was aseptically transferred into a HACH […] Turbidimeter sample cell. The turbidity of each sample was read and the results were reported in NTU's. The same 30 ml sample used for the turbidity reading was transferred into a 250 ml glass beaker, and the pH was recorded. The sample was titrated using 0.1 N NaOH to an endpoint of pH 6.8, and the quantity of NaOH used was recorded. The % Lactic Acid was calculated using the following formula: % Lactic Acid=((mls of 0.1N NaOH)×(0.1N)×(90 gm/mole)×(1 L/1000 ml))×100 mls of sample % Lactic Acid=(mls of 0.1N NaOH)×(0.9) (Results reported at 12 hours and 23 hours like: 12/23 in Table III below)

[2] = system: Lactobacillus salivarius-Ls-33 (LS-30); assay: Growth (turbidity) and lactic acid producing activity in MRS broth, L. salivarius Ls-33; settings: for pH: 0.1% in MRS (Polysorbate 80: 1.0 g/l)
Method: as §1, with “V” for “III”

[3] = system: Lactobacillus acidophilus NCFM (LA-1); assay: Growth (turbidity) and lactic acid producing activity in MRS broth, L. acidophilus NCFM; settings: for pH: 0.1% in MRS (Polysorbate 80: 1.0 g/l)
Method: as §1, with “At” for “Each flask was tempered to 37° C. and aseptically inoculated with 0.14 gm of the individual probiotic strains (in Examples 5 to 10 below) to be tested. At”, “I” for “III”

[4] = system: THERALAC® Lot #32310A probiotic strains; assay: Growth of the commercial probiotic […] in MRS broth; settings: for pH: 0.1% in MRS (Polysorbate 80: 1.0 g/l)
Method: MRS broth was prepared with (for controls) and without (for tests) polysorbate 80 and filled into 1 liter screw cap flasks at 500 ml each and autoclaved at 121° C. for 30 minutes. Various lecithin and/or oleic acid additives, or nothing (negative control), was added to the tests flasks prior to autoclaving. The flasks were then tempered to 37° C. in a water bath and inoculated at 0.1% with […]® Lot #32310A, a commercial probiotic product (Master Supplements, Inc., Victoria, Minn.). Capsules of […]® were opened and the contents mixed aseptically to serve as the inoculum source. At an inoculation rate of 0.1%, approximately 80 million CFU was added per ml of MRS media. […]® contains (formulation strength) the following probiotic strains at the approximate CFU values listed per gram: Turbidity, pH and titrations (made with 0.1 N NaOH and reported as % lactic acid) were made at various times up to 23 hours. The results are presented below in Table VI for the 12 and 23-hour analyses.

[5] = system: Lactobacillus rhamnosus-Lr-32 (LR-44); assay: Growth (turbidity) and lactic acid producing activity in MRS broth, L. rhamnosus Lr-32; settings: for pH: 0.1% in MRS (Polysorbate 80: 1.0 g/l)
Method: as §1, with “IV” for “III”

[6] = system: Bifidobacterium lactis Bl-04 (BL-34); assay: Growth (turbidity) and lactic acid producing activity in MRS broth, B. lactis Bl-04; settings: 0.1% in MRS (Polysorbate 80: 1.0 g/l)
Method: as §1, with “II” for “III”

[7] = 0.1% in MRS (Polysorbate 80: 1.0 g/l), 12 hours

| Compound | effectiveness as polysorbate 80 replacement (growth and activity) ([1]; 0.1% inclusion rate) | effectiveness as polysorbate 80 replacement (growth and activity) ([2]; 0.1% inclusion rate) | effectiveness as polysorbate 80 replacement (growth and activity) ([3]; 0.1% inclusion rate) | effectiveness as polysorbate 80 replacement (growth and activity) ([4]; 0.1% inclusion rate) | effectiveness as polysorbate 80 replacement (growth and activity) ([5]; 0.1% inclusion rate) | Lactic Acid % [1, 7] [%] | pH [1, 7] | pH ([1]; 0.1% in MRS (Polysorbate 80: 1.0 g/l), 23 hours) | pH ([2]; 12 hours) | pH ([2]; 23 hours) | pH ([3]; 12 hours) | pH ([3]; 23 hours) | pH ([4]; 12 hours) | pH ([4]; 23 hours) | Lactic Acid % ([6]; 12 hours) [%] | pH ([6]; 12 hours) | Lactic Acid % ([6]; 23 hours) [%] | pH ([6]; 23 hours) | pH ([5]; 12 hours) | pH ([5]; 23 hours) |
| --- | --- | --- | --- | --- | --- | --- | --- | --- | --- | --- | --- | --- | --- | --- | --- | --- | --- | --- | --- | --- |
| CCCCCCCC/C=C\CCCCCCCC(=O)O [Oleic Acid, oleic acid] | not as effective a replacement for polysorbate 80 as sunflower lecithin | not as good a replacement | somewhat effective as a polysorbate 80 replacement | acceptable replacement value for polysorbate 80 | not as good a replacement for polysorbate 80 as sunflower lecithin |  |  |  |  |  |  |  |  |  |  |  |  |  |  |  |
| polysorbate 80 |  |  |  |  |  | 0.99 | 4.2 | 3.9 | 3.8 | 3.7 | 4.2 | 4.1 | 3.9 | 3.7 | 0.57 | 4.8 | 0.84 | 4.5 | 4.0 | 3.7 |
